The text below walks through data of patent publication US20010047099A1, “4-aminopicolinates and their use as herbicides” (priority 2000, published 2001).

Data set [1] relates to chickweed (Stellaria media). The data set is described as follows: Postemergence herbicidal activity. Format: in vivo. The settings on record: Table 1, visual, after 2 weeks. As to the method: (§1) Seeds of the desired test plant species were planted in Grace-Sierra MetroMix® 306 planting mixture, which typically has a pH of 6.0 to 6.8 and an organic matter content of about 30 percent, in plastic pots with a surface area of 64 square centimeters. When required to ensure good germination and healthy plants, a fungicide treatment and/or other chemical or physical treatment was applied. The plants were grown for 7-21 days in a greenhouse with an approximate 15 hr photoperiod which was maintained at about 23-29° C. during the day and 22-28° C. during the night. Nutrients and water were added on a regular basis and supplemental lighting was provided with overhead metal halide 1000-Watt lamps as necessary. The plants were employed for testing when they reached the first or second true leaf stage.
(§2) A weighed amount, determined by the highest rate to be tested, of each test compound was placed in a 20 mL glass vial and was dissolved in 4 mL of a 97:3 v/v (volume/volume) mixture of acetone and dimethyl sulfoxide (DMSO) to obtain concentrated stock solutions. […] The concentrated stock solutions obtained were diluted with an aqueous mixture containing acetone, water, isopropyl alcohol, DMSO, Atplus 411F crop oil concentrate, and Triton X-155 surfactant in a 48.5:39:10:1.5:1.0:0.02 v/v ratio to obtain spray solutions of known concentration. The solutions containing the highest concentration to be tested were prepared by diluting 2 mL aliquots of the stock solution with 13 mL of the mixture and lower concentrations were prepared by serial dilution of the stock solution. Approximately 1.5 mL aliquots of each solution of known concentration were sprayed evenly onto each of the test plant pots using a DeVilbiss atomizer driven by compressed air pressure of 2 to 4 psi ([…]) to obtain thorough coverage of each plant. Control plants were sprayed in the same manner with the aqueous mixture. In this test an application rate of 1 ppm results in the application of approximately 1 g/Ha.
(§3) The treated plants and control plants were placed in a greenhouse as described above and watered by sub-irrigation to prevent wash-off of the test compounds. After 2 weeks the condition of the test plants as compared with that of the untreated plants was determined visually and scored on a scale of 0 to 100 percent where 0 corresponds to no injury and 100 corresponds to complete kill.

Data set [2] relates to cocklebur (Xanthium strumarium). The data set is described as follows: Postemergence herbicidal activity. Format: in vivo. The settings on record: Table 1, visual, after 2 weeks. As to the method:
as §1, §2, §3

Data set [3] has as its system wild buckwheat (Polygonum convolvulus). Put plainly: Postemergence herbicidal activity. As to conditions: Table 1, visual, after 2 weeks. Format: in vivo. On the procedure: as §1, §2, §3
The test system of data set [4] is morningglory (Ipomoea hederacea). The data set is described as follows: Preemergence herbicidal activity. As to conditions: Table 6 (headed Post-emergent; text: preemergence), after 3 weeks; for pest or weed control at 280 ppm: rate 280 ppm. It counts as in vivo. From the text:
(§4) Seeds of the desired test plant species were planted in a soil matrix prepared by mixing a loam soil (43 percent silt, 19 percent clay, and 38 percent sand, with a pH of about 8.1 and an organic matter content of bout 1.5 percent) and sand in a 70 to 30 ratio. The soil matrix was contained in plastic pots with a surface area of 113 square centimeters. When required to ensure good germination and healthy plants. a fungicide treatment and/or other chemical or physical treatment was applied.
(§5) A weighed amount, determined by the highest rate to be tested, of each test compound was placed in a 20 mL glass vial and was dissolved in 4 mL of a 97:3 v/v (volume/volume) mixture of acetone and dimethyl sulfoxide to obtain concentrated stock solutions. […] The stock solutions obtained were diluted with a 99.9:0.1 mixture of water and Tween® […] surfactant to obtain application solutions of known concentration. The solutions containing the highest concentration to be tested were prepared by diluting 2 mL aliquots of the stock solution with 15 mL of the mixture and lower concentrations were prepared by serial dilution of the stock solution. A 2.5 mL aliquot of each solution of known concentration was sprayed evenly onto the soil surface (113 sq. cm) of each seeded pot using a Cornwall 5.0 mL glass syringe fitted with a TeeJet TN-3 hollow cone nozzle to obtain thorough coverage of the soil in each pot. Control pots were sprayed in the same manner with the aqueous mixture.
(§6) The treated pots and control pots were placed in a greenhouse maintained with an approximate 15 hr photoperiod and temperatures of about 23-29° C. during the day and 22-28° C. during the night. Nutrients and water were added on a regular basis and supplemental lighting was provided with overhead metal halide 1000-Watt lamps as necessary. The water was added by top-irrigation. After 3 weeks the condition of the test plants that germinated and grew as compared with that of the untreated plants that germinated and grew was determined visually and scored on a scale of 0 to 100 percent where 0 corresponds to no injury and 100 corresponds to complete kill or no germination.

Data set [5] concerns pigweed (Amaranthus retroflexus). Put plainly: Preemergence herbicidal activity. Format: in vivo. As to conditions: Table 6 (headed Post-emergent; text: preemergence), after 3 weeks; for pest or weed control at 280 ppm: rate 280 ppm.
Excerpt: as §4, §5, §6

Data set [6] deals with velvetleaf (Abutilon theophrasti). Put plainly: Preemergence herbicidal activity. Format: in vivo. The settings on record: Table 6 (headed Post-emergent; text: preemergence), after 3 weeks; for pest or weed control at 280 ppm: rate 280 ppm.
Excerpt: as §4, §5, §6

Setting [7] is: Stellaria media, post-emergence, 336 h, rate 250 ppm, read-out: Post-emergent % Control STEME.
Setting [8] is: Xanthium strumarium, post-emergence, 336 h, rate 250 ppm, read-out: Post-emergent % Control XANST.
Setting [9] is: Fallopia convolvulus, post-emergence, 336 h, rate 250 ppm, read-out: Post-emergent % Control POLCO.
Where [10] appears, read: Ipomoea, 504 h, read-out: % Control IPOHE.
[11] abbreviates: Amaranthus retroflexus, 504 h, read-out: % Control AMARE.
[12] abbreviates: Abutilon theophrasti, 504 h, read-out: % Control ABUTH.
Where [13] appears, read: Ipomoea, 504 h, rate 560 ppm, read-out: % Control IPOHE.
[14] abbreviates: Amaranthus retroflexus, 504 h, rate 560 ppm, read-out: % Control AMARE.
[15] abbreviates: Abutilon theophrasti, 504 h, rate 560 ppm, read-out: % Control ABUTH.

As to `CCCCOCCOC(=O)c1nc(Cl)cc(N)c1Cl` (hydrate or solvate) [Compound 10, butoxyethyl 4-amino-3,6-dichloropyridine-2-carboxylate], the melting point – broadly, the temperature of the solid-liquid transition – is 64 to 67 °C.

`CCCCC(CC)COC(=O)c1nc(Cl)cc(N)c1Cl` (stereo not shown) [Compound 2, 2-Ethylhexyl 4-amino-3,6-dichloropyridine-2-carboxylate]: the melting point worked out at 55 °C. Also, the pest or weed control at 250 ppm in data set [1] (setting [7]) stood at 80%. Further, the pest or weed control at 250 ppm in data set [2] (setting [8]) was found to be 95%. For the same molecule, the pest or weed control at 250 ppm in data set [3] (setting [9]) was 100%. Moreover, in data set [4] (setting [10]), the pest or weed control at 280 ppm stood at 100%. Moreover, the pest or weed control at 280 ppm in data set [5] (setting [11]) was found to be 100%. For the same molecule, the pest or weed control at 280 ppm in data set [6] (setting [12]) was 100%.

Consider `CCCCCOC(=O)c1nc(Cl)cc(N)c1Cl` [Compound 8, n-pentyl 4-amino-3,6-dichloropyridine-2-carboxylate], for which the melting point lay within 71 to 73 °C. In data set [1] (setting [7]), the pest or weed control at 250 ppm was determined as 90%. Further, in data set [2] (setting [8]), the pest or weed control at 250 ppm is 100%. In data set [3] (setting [9]), the pest or weed control at 250 ppm was found to be 100%. Also, in data set [4] (setting [10]), the pest or weed control at 280 ppm is 100%. Further, the pest or weed control at 280 ppm in data set [5] (setting [11]) was 100%. Also, in data set [6] (setting [12]), the pest or weed control at 280 ppm stood at 100%.

In turn, `NC(=O)c1nc(Cl)cc(N)c1Cl` [Compound 11, 4-Amino-3,6-dichloropyridine-2-carboxamide] registered a melting point of 240 to 241 °C. In addition, in data set [1] (Stellaria media, post-emergence, 336 h, rate 125 ppm, read-out: Post-emergent % Control STEME), the pest or weed control at 125 ppm turned out to be 85%. In addition, the pest or weed control at 125 ppm in data set [2] (Xanthium strumarium, post-emergence, 336 h, rate 125 ppm, read-out: Post-emergent % Control XANST) is 80%. Also, in data set [3] (Fallopia convolvulus, post-emergence, 336 h, rate 125 ppm, read-out: Post-emergent % Control POLCO), the pest or weed control at 125 ppm was 95%. Also, in data set [4] (setting [13]), the pest or weed control at 560 ppm was 85%. Further, the pest or weed control at 560 ppm in data set [5] (setting [14]) stood at 0%. For the same molecule, the pest or weed control at 560 ppm in data set [6] (setting [15]) amounted to 85%.

As to `Nc1cc(Br)nc(C(=O)O)c1Br` [Compound 17, 4-Amino-3,6-dibromopyridine-2-carboxylic acid], the melting point was 205 °C (dec.). The pest or weed control at 250 ppm in data set [1] (setting [7]) was determined as 80%. For the same molecule, in data set [2] (setting [8]), the pest or weed control at 250 ppm was found to be 100%. For the same molecule, the pest or weed control at 250 ppm in data set [3] (setting [9]) amounted to 100%. Further, the pest or weed control at 560 ppm in data set [4] (setting [13]) turned out to be 100%. Also, the pest or weed control at 560 ppm in data set [5] (setting [14]) was found to be 100%. In data set [6] (setting [15]), the pest or weed control at 560 ppm stood at 100%.

`Nc1c(Cl)c(C(=O)O)nc(Cl)c1C(F)(F)F` [Compound 21, 4-Amino-3,6-dichloro-5-trifluoromethylpyridine-2-carboxylic acid] returned a melting point of 173 °C. Besides, the pest or weed control at 250 ppm in data set [1] (setting [7]) was 20%. Further, the pest or weed control at 250 ppm in data set [2] (setting [8]) is 70%. Also, the pest or weed control at 250 ppm in data set [3] (setting [9]) was 20%. The pest or weed control at 560 ppm in data set [4] (setting [13]) is 90%. Also, in data set [5] (setting [14]), the pest or weed control at 560 ppm is 80%. Also, in data set [6] (setting [15]), the pest or weed control at 560 ppm is 80%.

Consider `COc1c(Cl)nc(C(=O)O)c(Cl)c1N` [Compound 22, 4-Amino-3,6-dichloro-5-methoxypyridine-2-carboxylic acid], for which the melting point is 154 to 156 °C. The pest or weed control at 250 ppm in data set [1] (setting [7]) was determined as 90%. In addition, the pest or weed control at 250 ppm in data set [2] (setting [8]) was determined as 80%. Besides, in data set [3] (setting [9]), the pest or weed control at 250 ppm is 100%. Also, the pest or weed control at 560 ppm in data set [4] (setting [13]) worked out at 100%. In addition, the pest or weed control at 560 ppm in data set [5] (setting [14]) came out at 100%. For the same molecule, in data set [6] (setting [15]), the pest or weed control at 560 ppm worked out at 100%.

As for `COC(=O)c1nc(Cl)c([N+](=O)[O-])c(N)c1Cl` [Compound 25, Methyl 4-amino-3,6-dichloro-5-nitropyridine-2-carboxylate], the melting point lay within 127 to 128 °C. In data set [1] (setting [7]), the pest or weed control at 250 ppm came out at 50%. Also, in data set [2] (setting [8]), the pest or weed control at 250 ppm came out at 60%. For the same molecule, the pest or weed control at 250 ppm in data set [3] (setting [9]) amounted to 50%.

Regarding `CCCCNc1cc(Cl)nc(C(=O)O)c1Cl` [Compound 29, 4-N-butylamino-3,6-dichloropyridine-2-carboxylic acid], the melting point fell in the range of 96 to 97 °C. In addition, the pest or weed control at 250 ppm in data set [1] (setting [7]) came to 90%. The pest or weed control at 250 ppm in data set [2] (setting [8]) turned out to be 95%. Moreover, in data set [3] (setting [9]), the pest or weed control at 250 ppm is 90%. Besides, the pest or weed control at 560 ppm in data set [4] (setting [13]) was 100%. The pest or weed control at 560 ppm in data set [5] (setting [14]) turned out to be 100%. In data set [6] (setting [15]), the pest or weed control at 560 ppm was determined as 100%.

`Cc1c(Br)nc(C(=O)O)c(Cl)c1N=[N+]=[N-]` [Compound 38, Methyl 4-azido-6-bromo-3-chloropyridine-2-carboxylic acid] showed a melting point of 84 to 86 °C.

As to `Nc1cc(Oc2ccc(Cl)c(Cl)c2)nc(C(=O)O)c1Cl` [Compound 51, 4-amino-3-chloro-6-(3,4-dichlorophenoxy)-pyridine-2-carboxylic acid], the pest or weed control at 250 ppm in data set [1] (setting [7]) stood at 70%; in data set [2] (setting [8]), 100%; in data set [3] (setting [9]), 100%. Moreover, the pest or weed control at 280 ppm was found to be 0% in data set [4] (setting [10]), 98% in data set [5] (setting [11]) and 80% in data set [6] (setting [12]).

Take `Nc1c(F)c(Oc2ccc(Cl)c(Cl)c2)nc(C(=O)O)c1Cl` [Compound 55, 4-Amino-3-chloro-5-fluoro-6-(3,4-dichlorophenoxy)pyridine-2-carboxylic acid]: the pest or weed control at 250 ppm in data set [1] (setting [7]) was 95%; in data set [2] (setting [8]) it was 100%; in data set [3] (setting [9]), 100%; in data set [4] (Ipomoea, 504 h, rate 250 ppm, read-out: % Control IPOHE), 100%; in data set [5] (Amaranthus retroflexus, 504 h, rate 250 ppm, read-out: % Control AMARE), 95%; in data set [6] (Abutilon theophrasti, 504 h, rate 250 ppm, read-out: % Control ABUTH), 100%.

For “N,N-diacetyl 4-amino-3,6-dichloropyridine-2-carboxylate [Compound 13]”, the “Post-emergent % Control STEME” value in data set [1] (rate 250 ppm) is given as 100%. The “Post-emergent % Control XANST” value in data set [2] (rate 250 ppm) is on record as 95%. Further, the “Post-emergent % Control POLCO” value in data set [3] (rate 250 ppm) is reported as 80%. Moreover, the “% Control IPOHE” value in data set [4] (rate 560 ppm) was found to be 95%. Further, in data set [5] (rate 560 ppm), the “% Control AMARE” value was 100%. Further, the “% Control ABUTH” value in data set [6] (rate 560 ppm) was 95%.
